Values after ≈ are worked out from the molar mass of the structure shown.
Key:
E. coli 901C = assay: microbe, parasite or virus in culture; type: cell-based; conditions: Escherichia coli, read-out: MIC E. coli 901C
[1] = biological target: T1, PBP2 from Neisseria gonorrhoeae (FA19) (Neisseria gonorrhoeae, UniProt P08149); assay: Bocillin-FL fluorescence polarization competition binding, N. gonorrhoeae PBP2; conditions: fluorescence polarization competition binding assay using Bocillin-FL, read-out: N. gonorrhoeae PBP2 Potency
T1 construct: made in house
T1 sequence (P08149 whole entry): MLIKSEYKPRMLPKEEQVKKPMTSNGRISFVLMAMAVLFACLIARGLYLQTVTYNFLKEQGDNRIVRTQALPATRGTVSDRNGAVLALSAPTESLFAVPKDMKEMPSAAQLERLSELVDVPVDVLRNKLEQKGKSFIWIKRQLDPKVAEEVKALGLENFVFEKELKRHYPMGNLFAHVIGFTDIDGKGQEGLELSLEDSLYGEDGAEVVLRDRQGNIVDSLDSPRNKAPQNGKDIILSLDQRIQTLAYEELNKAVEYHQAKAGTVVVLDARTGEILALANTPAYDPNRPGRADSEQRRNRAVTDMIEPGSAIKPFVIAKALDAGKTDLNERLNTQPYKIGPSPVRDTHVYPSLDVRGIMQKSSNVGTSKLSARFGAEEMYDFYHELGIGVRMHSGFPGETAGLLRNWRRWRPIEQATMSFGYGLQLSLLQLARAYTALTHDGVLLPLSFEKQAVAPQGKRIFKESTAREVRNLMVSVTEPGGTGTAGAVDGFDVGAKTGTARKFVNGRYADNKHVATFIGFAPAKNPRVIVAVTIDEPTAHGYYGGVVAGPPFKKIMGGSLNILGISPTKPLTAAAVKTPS
Text: To determine the ability of boronic acid-based test PBP inhibitors to bind Penicillin Binding Proteins (PBPs), Bocillin-FL (fluorescently-labeled penicillin V; ThermoFisher Scientific) was used in a fluorescence polarization (FP) competition binding assay to assess inhibitor binding to PBP3 from Escherichia coli (K-12), PBP3 from Pseudomonas aeruginosa (PAO1), PBP1a and PBP3 from Acinetobacter baumannii (ATCC 19606), and PBP2 from Neisseria gonorrhoeae (FA19). PBPs were cloned and purified as described previously (E. coli PBP3, King, D. T, et al., ACS Infectious Diseases 2015, 1, 175-184; P. aeruginosa PBP3, Han et. al., PNAS 2010, 107 (51), 22002-22007; A. baumannii PBPs, Penwell et. al., Antimicrob. Agents Chemother. 2015, 59 (3), 1680-1689; N. gonorrhoeae PBP2, Singh et. al., J. Biol. Chem. 2019, 294 (38), 14020-14032). To establish assay conditions for competition binding, enzyme titration/saturation binding experiments were initially performed. Bocillin-FL was prepared at 0.2 μM in a buffer comprised of 50 mM Hepes (pH 8.0), 300 mM NaCl and 10% (v/v) glycerol for reactions with E. coli, P. aeruginosa and N. gonorrhoeae PBPs, and 25 mM Tris (pH 8.0), 200 mM NaCl, 10% (v/v) glycerol and 0.005% (v/v) Tween 20 for reactions with A. baumannii PBPs. Saturation binding was performed by mixing 40 μl of PBP solutions ranging in concentrations from 0-24 μM with 40 μl of the 0.2 μM Bocillin-FL solution, in individual wells of a black 384-well microplate. FP was measured immediately upon mixing (Excitation, 490 nm; Emission, 520 nm; g-factor, 0.96), using a Cytation3 (BioTek) microplate reader and measured continuously for up to 120 minutes. […] The competition binding assay (80 μl final volume) was validated using beta-lactams and PBPs at final concentrations of: 1.5 μM for E. coli PBP3; 0.75 μM for P. aeruginosa PBP3; 1 μM for A. baumannii PBP1a; 0.2 μM for A. baumannii PBP3; and 0.25 μM for N. gonorrhoeae PBP2. Bocillin-FL was at 0.1 μM (0.05 μM with A. baumannii PBP1a) and beta-lactam concentrations ranged from 0-1,000 μM. E. coli PBP3 was incubated with increasing concentrations of ampicillin in a black 384-well microplate (Corning) for 30 minutes. P. aeruginosa PBP3 was incubated for 15 minutes with aztreonam, whereas A. baumannii PBP1a and PBP3 were incubated for 15 minutes with meropenem, and then Bocillin-FL was added followed immediately by the FP measurement for up to 60 minutes. […] The beta-lactam potency was reported as the concentration of beta-lactam required to reduce the amount of PBP bound-Bocillin-FL by 50% (EC50). […] Binding assays for boronic acid PBP inhibitors were performed in an identical fashion for the respective PBPs.

Compound	MIC (E. coli 901C)	EC50 [1]
Cn1cccc(C(=O)N[C@@H](C(=O)N[C@H]2Cc3cccc(C(=O)O)c3OB2O)c2ccc(P(=O)(O)O)cc2)c1=O (single isomer, unassigned) [Example 182]	2 to 4 µg/mL (≈ 3.6 to 7.2 µM)	< 10 µM
N#Cc1cccc(C(=O)N[C@@H](C(=O)N[C@H]2Cc3cccc(C(=O)O)c3OB2O)c2ccc(P(=O)(O)O)cc2)n1 [Example 180, (R)-3-((R)-2-(6-cyanopicolinamido)-2-(4-phosphonophenyl)acetamido)-2-hydroxy-3,4-dihydro-2H-benzo[e][1,2]oxaborinine-8-carboxylic acid]	< 1 µg/mL	< 10 µM
CC(=O)NC(C(=O)N[C@H]1Cc2cccc(C(=O)O)c2OB1O)c1ccc(P(=O)(O)O)cc1 (stereo partly drawn) [Example 26, (3R)-3-(2-acetamido-2-(4-phosphonophenyl)acetamido)-2-hydroxy-3,4-dihydro-2H-benzo[e][1,2]oxaborinine-8-carboxylic acid]	8 to 16 µg/mL (≈ 17.3 to 34.6 µM)	10 to 50 µM
CCN1CCN(C(=O)N[C@@H](C(=O)N[C@H]2Cc3cccc(C(=O)O)c3OB2O)c2ccc(P(=O)(O)O)c(F)c2)C(=O)C1=O (single isomer, unassigned) [Example 7]	< 1 µg/mL	< 10 µM
CS(=O)(=O)N1CCC[C@@H]1C(=O)N[C@@H](C(=O)N[C@H]1Cc2cccc(C(=O)O)c2OB1O)c1ccc(P(=O)(O)O)cc1 [Example 35, (R)-2-hydroxy-3-((R)-2-((R)-1-(methylsulfonyl)pyrrolidine-2-carboxamido)-2-(4-phosphonophenyl)acetamido)-3,4-dihydro-2H-benzo[e][1,2]oxaborinine-8-carboxylic acid]	8 to 16 µg/mL (≈ 13.4 to 26.9 µM)	< 10 µM
CC(C)C(=O)NC(C(=O)N[C@H]1Cc2cccc(C(=O)O)c2OB1O)c1ccc(P(=O)(O)O)cc1 (stereo partly drawn) [Example 28, (3R)-2-hydroxy-3-(2-isobutyramido-2-(4-phosphonophenyl)acetamido)-3,4-dihydro-2H-benzo[e][1,2]oxaborinine-8-carboxylic acid]	8 to 16 µg/mL (≈ 16.3 to 32.6 µM)	< 10 µM
O=C(O)c1c(F)ccc2c1OB(O)[C@@H](NC(=O)C(NC(=O)N1CCN(Cc3cc(F)c(O)c(O)c3Cl)C(=O)C1=O)c1ccc(P(=O)(O)O)cc1)C2 (stereo partly drawn) [Example 45, (3R)-3-(2-(4-(2-chloro-5-fluoro-3,4-dihydroxybenzyl)-2,3-dioxopiperazine-1-carboxamido)-2-(4-phosphonophenyl)acetamido)-7-fluoro-2-hydroxy-3,4-dihydro-2H-benzo[e][1,2]oxaborinine-8-carboxylic acid]		< 10 µM
O=C(O)c1cccc2c1OB(O)[C@@H](NC(=O)C(NC(=O)N1CCN(Cc3ccc(O)c(O)c3Cl)C(=O)C1=O)c1ccc(P(=O)(O)O)cc1)C2 (stereo partly drawn) [Example 24, (3R)-3-(2-(4-(2-chloro-3,4-dihydroxybenzyl)-2,3-dioxopiperazine-1-carboxamido)-2-(4-phosphonophenyl)acetamido)-2-hydroxy-3,4-dihydro-2H-benzo[e][1,2]oxaborinine-8-carboxylic acid]		< 10 µM
O=C(O)c1c(F)ccc2c1OB(O)[C@@H](NC(=O)C(NC(=O)N1CCN(Cc3ccc(O)c(O)c3Cl)C1=O)c1ccc(P(=O)(O)O)cc1)C2 (stereo partly drawn) [Example 46, (3R)-3-(2-(3-(2-chloro-3,4-dihydroxybenzyl)-2-oxoimidazolidine-1-carboxamido)-2-(4-phosphonophenyl)acetamido)-7-fluoro-2-hydroxy-3,4-dihydro-2H-benzo[e][1,2]oxaborinine-8-carboxylic acid]		< 10 µM
O=C(O)c1c(F)ccc2c1OB(O)[C@@H](NC(=O)C(NC(=O)N1CCN(Cc3ccc(O)c(O)c3Cl)C(=O)C1=O)c1ccc(P(=O)(O)O)c(F)c1)C2 (stereo partly drawn) [Example 23, (3R)-3-(2-(4-(2-chloro-3,4-dihydroxybenzyl)-2,3-dioxopiperazine-1-carboxamido)-2-(3-fluoro-4-phosphonophenyl)acetamido)-7-fluoro-2-hydroxy-3,4-dihydro-2H-benzo[e][1,2]oxaborinine-8-carboxylic acid]		< 10 µM
